Values joined by “and” are separate entries in the source; they are usually repeats but may differ in a detail not shown here. Identical values can stand only once.
Assays:
[1] = Molar enthalpy of transition or fusion; conditions: DSC
[2] = molar heat capacity at constant pressure; conditions: 100 kPa, Extra sensitive DSC
[3] = for Triple point temperature: DSC

CC(C)[C@@H]1CC[C@@H](C)C[C@H]1O (racemic) [DL-menthol]
Conditions	Molar enthalpy of transition or fusion, [1] [kcal/mol]	Triple point temperature, [3] [K]
Crystal 1	3.27	305.7
Metastable crystal	2.37	300.7

Conditions	molar heat capacity at constant pressure [J/K/mol]	vapor or sublimation pressure
[2], 265 K, Crystal 1	217.6	–
[2], 270 K, Crystal 1	221.3	–
[2], 270 K, Metastable crystal	217.5	–
[2], 275 K, Crystal 1	225.3	–
[2], 275 K, Metastable crystal	219.5	–
[2], 280 K, Crystal 1	229.5	–
[2], 280 K, Metastable crystal	223.1	–
[2], 285 K, Crystal 1	234.2	–
[2], 285 K, Metastable crystal	229	–
[2], 315.4 K, Liquid	377.3	–
[2], 320 K, Liquid	384.2	–
[2], 325 K, Liquid	392	–
[2], 330 K, Liquid	399.8	–
[2], 335 K, Liquid	406.9	–
[2], 340 K, Liquid	412.7	–
[2], 345 K, Liquid	418.1	–
[2], 350 K, Liquid	423.7	–
[2], 355 K, Liquid	429	–
[3], 273.65 K, Crystal 1	–	0.000259 kPa
[3], 273.66 K, Crystal 1	–	0.000261 kPa
[3], 277.57 K, Crystal 1	–	0.000442 kPa
[3], 277.59 K, Crystal 1	–	0.000442 kPa
[3], 277.6 K, Crystal 1	–	0.00044 kPa
[3], 278.16 K, Crystal 1	–	0.00048 kPa and 0.000479 kPa and 0.000477 kPa
[3], 278.28 K, Metastable crystal	–	0.000597 kPa and 0.000607 kPa
[3], 278.29 K, Metastable crystal	–	0.00061 kPa
[3], 282.56 K, Crystal 1	–	0.000853 kPa
[3], 282.57 K, Crystal 1	–	0.000852 kPa
[3], 282.59 K, Crystal 1	–	0.000854 kPa
[3], 283.12 K, Metastable crystal	–	0.00109 kPa
[3], 283.13 K, Metastable crystal	–	0.0011 kPa and 0.001093 kPa
[3], 283.15 K, Crystal 1	–	0.000922 kPa
[3], 283.16 K, Crystal 1	–	0.000921 kPa and 0.000926 kPa
[3], 287.34 K, Crystal 1	–	0.001562 kPa
[3], 287.43 K, Crystal 1	–	0.001579 kPa
[3], 287.59 K, Crystal 1	–	0.001607 kPa
[3], 288.14 K, Metastable crystal	–	0.002021 kPa and 0.00201 kPa
[3], 288.15 K, Metastable crystal	–	0.00201 kPa
[3], 288.16 K, Crystal 1	–	0.001734 kPa and 0.001736 kPa
[3], 292.79 K, Crystal 1	–	0.003041 kPa
[3], 292.84 K, Crystal 1	–	0.003054 kPa
[3], 292.9 K, Crystal 1	–	0.003078 kPa
[3], 293.14 K, Crystal 1	–	0.003173 kPa and 0.00318 kPa
[3], 293.14 K, Metastable crystal	–	0.003615 kPa and 0.003596 kPa and 0.003627 kPa
[3], 293.14 K, Metastable liquid	–	0.003971 kPa and 0.003966 kPa and 0.003969 kPa
[3], 293.15 K, Crystal 1	–	0.003183 kPa
[3], 293.54 K, Metastable liquid	–	0.00414 kPa and 0.004147 kPa
[3], 293.55 K, Metastable liquid	–	0.004144 kPa
[3], 298.13 K, Metastable liquid	–	0.006551 kPa
[3], 298.14 K, Metastable crystal	–	0.00634 kPa and 0.006361 kPa and 0.006351 kPa
[3], 298.14 K, Metastable liquid	–	0.006556 kPa and 0.00655 kPa
[3], 298.16 K, Crystal 1	–	0.005733 kPa [middle of 4 runs]
[3], 298.17 K, Crystal 1	–	0.005739 kPa
[3], 298.18 K, Crystal 1	–	0.005738 kPa
[3], 298.45 K, Metastable liquid	–	0.006763 kPa
[3], 298.46 K, Metastable liquid	–	0.00678 kPa
[3], 298.47 K, Metastable liquid	–	0.006777 kPa
[3], 303.13 K, Metastable liquid	–	0.01059 kPa
[3], 303.14 K, Crystal 1	–	0.01009 kPa and 0.0101 kPa
[3], 303.14 K, Metastable liquid	–	0.0106 kPa
[3], 303.15 K, Crystal 1	–	0.0101 kPa
[3], 303.17 K, Crystal 1	–	0.01013 kPa
[3], 303.19 K, Crystal 1	–	0.01017 kPa
[3], 303.2 K, Crystal 1	–	0.01019 kPa
[3], 303.42 K, Metastable liquid	–	0.01089 kPa and 0.01091 kPa
[3], 303.43 K, Metastable liquid	–	0.01091 kPa
[3], 308.14 K, Liquid	–	0.01683 kPa and 0.01682 kPa and 0.01681 kPa
[3], 308.42 K, Liquid	–	0.01728 kPa
[3], 308.43 K, Liquid	–	0.01728 kPa and 0.01729 kPa
[3], 313.42 K, Liquid	–	0.0268 kPa
[3], 313.43 K, Liquid	–	0.02682 kPa
[3], 313.44 K, Liquid	–	0.02686 kPa
[3], 318.39 K, Liquid	–	0.04089 kPa
[3], 318.4 K, Liquid	–	0.04092 kPa
[3], 318.42 K, Liquid	–	0.041 kPa
[3], 323.41 K, Liquid	–	0.06149 kPa and 0.06146 kPa
[3], 328.43 K, Liquid	–	0.09086 kPa
[3], 333.43 K, Liquid	–	0.1322 kPa
[3], 333.44 K, Liquid	–	0.1323 kPa
[3], 338.35 K, Liquid	–	0.188 kPa
[3], 338.36 K, Liquid	–	0.188 kPa
[3], 343.2 K, Liquid	–	0.2626 kPa
[3], 343.21 K, Liquid	–	0.2628 kPa
[3], 348.1 K, Liquid	–	0.3638 kPa
[3], 348.11 K, Liquid	–	0.3638 kPa
[3], 353.03 K, Liquid	–	0.4979 kPa
[3], 362.97 K, Liquid	–	0.9031 kPa

Source: the NIST ThermoML archive (doi:10.1016/j.jct.2018.11.004)
